Measurements from the supplement of paper PMC11451515.

Tested on: SEM cells
Assay: cell viability relative to DMSO control; higher = less cytotoxic
Conditions: 48 h
How it was run: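 NOMO1 or SEM cells were plated at 500 cells/well and P12-Ichikawa cells at 1000 cells/well in 1536-well plates (5 μl), after each leukemia line had been adapted for at least four passages in each medium. Pin dosing delivered library compounds in DMSO at 11 threefold concentrations, 47 μM to 0.79 nM. CellTiter-Glo One luminescence was read after 48 h at 37°C. Viability is reported as a per-plate percentage of DMSO wells, with cell-free wells as background.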

[1] = HPLM + 10% dialyzed FBS, 0.000781 µM
[2] = HPLM + 10% dialyzed FBS, 0.00234 µM
[3] = HPLM + 10% dialyzed FBS, 0.00702 µM
[4] = HPLM + 10% dialyzed FBS, 0.0211 µM
[5] = HPLM + 10% dialyzed FBS, 0.0632 µM
[6] = HPLM + 10% dialyzed FBS, 0.19 µM
[7] = HPLM + 10% dialyzed FBS, 0.569 µM
[8] = HPLM + 10% dialyzed FBS, 1.71 µM
[9] = HPLM + 10% dialyzed FBS, 5.12 µM
[10] = HPLM + 10% dialyzed FBS, 15.4 µM
[11] = HPLM + 10% dialyzed FBS, 46.1 µM
[12] = RPMI 5 mM glucose + 10% FBS, 0.000781 µM
[13] = RPMI 5 mM glucose + 10% FBS, 0.00234 µM
[14] = RPMI 5 mM glucose + 10% FBS, 0.00702 µM
[15] = RPMI 5 mM glucose + 10% FBS, 0.0211 µM
[16] = RPMI 5 mM glucose + 10% FBS, 0.0632 µM
[17] = RPMI 5 mM glucose + 10% FBS, 0.19 µM
[18] = RPMI 5 mM glucose + 10% FBS, 0.569 µM
[19] = RPMI 5 mM glucose + 10% FBS, 1.71 µM
[20] = RPMI 5 mM glucose + 10% FBS, 5.12 µM
[21] = RPMI 5 mM glucose + 10% FBS, 15.4 µM
[22] = RPMI 5 mM glucose + 10% FBS, 46.1 µM
[23] = RPMI 5 mM glucose + 10% dialyzed FBS, 0.000781 µM
[24] = RPMI 5 mM glucose + 10% dialyzed FBS, 0.00234 µM
[25] = RPMI 5 mM glucose + 10% dialyzed FBS, 0.00702 µM
[26] = RPMI 5 mM glucose + 10% dialyzed FBS, 0.0211 µM
[27] = RPMI 5 mM glucose + 10% dialyzed FBS, 0.0632 µM
[28] = RPMI 5 mM glucose + 10% dialyzed FBS, 0.19 µM
[29] = RPMI 5 mM glucose + 10% dialyzed FBS, 0.569 µM
[30] = RPMI 5 mM glucose + 10% dialyzed FBS, 1.71 µM
[31] = RPMI 5 mM glucose + 10% dialyzed FBS, 5.12 µM
[32] = RPMI 5 mM glucose + 10% dialyzed FBS, 15.4 µM
[33] = RPMI 5 mM glucose + 10% dialyzed FBS, 46.1 µM

| SMILES | cell viability [1] [%] | cell viability [2] [%] | cell viability [3] [%] | cell viability [4] [%] | cell viability [5] [%] | cell viability [6] [%] | cell viability [7] [%] | cell viability [8] [%] | cell viability [9] [%] | cell viability [10] [%] | cell viability [11] [%] | cell viability [12] [%] | cell viability [13] [%] | cell viability [14] [%] | cell viability [15] [%] | cell viability [16] [%] | cell viability [17] [%] | cell viability [18] [%] | cell viability [19] [%] | cell viability [20] [%] | cell viability [21] [%] | cell viability [22] [%] | cell viability [23] [%] | cell viability [24] [%] | cell viability [25] [%] | cell viability [26] [%] | cell viability [27] [%] | cell viability [28] [%] | cell viability [29] [%] | cell viability [30] [%] | cell viability [31] [%] | cell viability [32] [%] | cell viability [33] [%] |
| --- | --- | --- | --- | --- | --- | --- | --- | --- | --- | --- | --- | --- | --- | --- | --- | --- | --- | --- | --- | --- | --- | --- | --- | --- | --- | --- | --- | --- | --- | --- | --- | --- | --- |
| c1cc2c(cc1[C@H]1OC[C@H]3[C@@H]1CO[C@@H]3c1ccc3c(c1)OCO3)OCO2 | 113 | 105 | 119 | 123 | 126 | 119 | 126 | 110 | 119 | 108 | 92.4 | 124 | 102 | 117 | 129 | 131 | 135 | 117 | 113 | 107 | 100 | 103 | 108 | 115 | 144 | 130 | 113 | 140 | 130 | 132 | 103 | 118 | 86.4 |
| CCOc1cc(C(=O)Nc2ccc(Cl)c(-c3nc4ccccc4[nH]3)c2)cc(OCC)c1OCC | 70.1 | 76 | 91.4 | 92.8 | 92 | 87.5 | 89.3 | 91 | 85.2 | 17.4 | 62.4 | 76.8 | 74.7 | 93.6 | 92.7 | 94.2 | 94.4 | 109 | 94.5 | 93.5 | 9.91 | 48.1 | 73.9 | 77.1 | 91.8 | 95.4 | 85.6 | 93.5 | 92.6 | 86.6 | 77.7 | 16.8 | 46.1 |
| OC(=O)CNC(=O)\C1=C(/O)C2=CC=CC=C2N(CC3=CC=CC=C3)C1=O | 106 | 104 | 105 | 125 | 54 | 99.2 | 116 | 104 | 111 | 102 | 106 | 98.1 | 103 | 117 | 112 | 17.9 | 104 | 107 | 94.7 | 106 | 97.4 | 88.9 | 121 | 116 | 111 | 106 | 89.3 | 117 | 119 | 114 | 105 | 86.3 | 109 |
| O=C(Nc1ccccc1)Nc1ccc(-c2ccc(C(=O)[C@@H]3CCC[C@H]3C(=O)O)cc2)cc1 | 101 | 111 | 101 | 110 | 110 | 103 | 99.8 | 107 | 108 | 106 | 105 | 102 | 102 | 111 | 108 | 109 | 99.5 | 114 | 97.6 | 94.6 | 91.2 | 114 | 109 | 103 | 107 | 124 | 104 | 99.7 | 101 | 95.4 | 113 | 107 | 123 |
| COc1cc(N2CCC(N3CCN(C)CC3)CC2)ccc1Nc1ncc(Cl)c(Nc2ccccc2[S+](=O)([O-])C(C)C)n1 | 50.9 | 55.6 | 75.8 | 89.1 | 127 | 84.1 | 89.4 | 19.3 | 22 | 17.5 | 13.6 | 48.1 | 57.5 | 93.2 | 105 | 117 | 84.1 | 72.7 | 16.1 | 12.9 | 8.26 | 4.14 | 58.8 | 63.1 | 86.6 | 117 | 119 | 86.2 | 90.1 | 17.8 | 14.9 | 15 | 11.9 |
| CCOC(=O)c1c(CSc2ccccc2)n(C)c2cc(Br)c(O)c(CN(C)C)c12 | 89.7 | 94.8 | 96.4 | 109 | 96.2 | 102 | 97.3 | 103 | 82.5 | 108 | 88.6 | 107 | 114 | 109 | 103 | 104 | 128 | 125 | 129 | 103 | 101 | 63.7 | 94.9 | 114 | 101 | 104 | 111 | 97.5 | 94.7 | 109 | 113 | 109 | 70.5 |
| COc1cccc(OC)c1-c1cc(C(=O)NC2(C(=O)O)C3CC4CC(C3)CC2C4)nn1-c1ccnc2cc(Cl)ccc12 (stereo not drawn) | 107 | 94.1 | 96.4 | 109 | 115 | 112 | 117 | 102 | 104 | 97.8 | 112 | 89.7 | 98 | 106 | 92.4 | 107 | 98.4 | 104 | 110 | 117 | 92.6 | 79.2 | 95.2 | 118 | 109 | 126 | 96.3 | 119 | 117 | 102 | 116 | 118 | 113 |
| O=C(O)c1cccnc1 | 111 | 117 | 109 | 118 | 105 | 106 | 98.2 | 37.5 | 14.4 | 9.12 | 6.43 | – | – | – | – | – | – | – | – | – | – | – | – | – | – | – | – | – | – | – | – | – | – |
| C/C1=C/C(=C(/CNC(=O)C2=CC(=CC3=C2C=N[N]3C4CCCC4)C5=CC=C(CN6CCOCC6)C=C5)C(=O)N1)C | 113 | 122 | 126 | 23.4 | 117 | 127 | 115 | 115 | 113 | 106 | 7.3 | 97.8 | 103 | 116 | 18.1 | 106 | 96.5 | 83.4 | 93.2 | 92 | 67.5 | 4.27 | 116 | 124 | 132 | 22.7 | 130 | 122 | 118 | 129 | 128 | 126 | 6.82 |
| c1coc(CNc2ncnc3nc[nH]c23)c1 | 112 | 101 | 112 | 103 | 116 | 118 | 123 | 110 | 130 | 127 | 103 | 110 | 120 | 116 | 121 | 124 | 110 | 119 | 120 | 143 | 119 | 105 | 105 | 115 | 106 | 114 | 111 | 114 | 97.4 | 109 | 115 | 119 | 96.1 |
| Cc1nc(-c2ccc(-c3ccc(C(=O)N4CCc5cc6c(cc54)C4(CCN(C)CC4)CO6)cc3)c(C)c2)no1 | 88.4 | 104 | 108 | 106 | 119 | 97.4 | 114 | 108 | 117 | 136 | 123 | 114 | 102 | 107 | 105 | 99.3 | 112 | 114 | 101 | 117 | 107 | 113 | 108 | 99.7 | 103 | 95.4 | 92.5 | 96 | 104 | 96.5 | 92.8 | 100 | 103 |
| C[S+](=O)([O-])N1CCN(Cc2cc3nc(-c4cccc5[nH]ncc45)nc(N4CCOCC4)c3s2)CC1 | 97.5 | 121 | 116 | 111 | 103 | 92.4 | 82 | 74.9 | 56.9 | 31.7 | 12.9 | 106 | 121 | 129 | 105 | 112 | 108 | 89 | 67.4 | 46.6 | 23.2 | 8.22 | 115 | 122 | 129 | 127 | 110 | 106 | 78.6 | 78 | 57 | 42.6 | 16 |
| Cc1nnc(C(C)C)n1[C@@H]1C[C@H]2CC[C@@H](C1)N2CC[C@H](NC(=O)C1CCC(F)(F)CC1)c1ccccc1 | 83.1 | 90.9 | 95.8 | 95 | 77.2 | 98.3 | 105 | 98 | 102 | 64.9 | 57.1 | 78.9 | 74.3 | 82.2 | 93.4 | 86.1 | 103 | 84.9 | 85.6 | 86.1 | 43.6 | 38.6 | 84.6 | 90.5 | 101 | 90.1 | 88.9 | 103 | 87.8 | 103 | 105 | 51.8 | 40.2 |
| CCC(=O)N1CCN(CC1)C2=C(C=C(C=C2)N3C(=O)\C=C/C4=C3C5=CC(=CC=C5N=C4)C6=CN=C7C=CC=CC7=C6)C(F)(F)F | 77.6 | 88.7 | 85.9 | 73.8 | 57.8 | 67.8 | 46.9 | 48.7 | 47.5 | 34.4 | 29 | 97 | 102 | 90.1 | 80.6 | 56.7 | 59.7 | 48 | 45 | 45 | 47.9 | 30.9 | 83.4 | 92.6 | 91.5 | 84.1 | 61.2 | 62.7 | 46 | 54.7 | 42.5 | 42.8 | 33.1 |
| CN(C)c1ccc(-c2nc3c(N4CCN(CC(=O)Nc5nccs5)CC4)c(Cl)cnc3[nH]2)cc1 | 129 | 102 | 115 | 112 | 115 | 112 | 109 | 86.9 | 105 | 80 | 58.8 | 103 | 118 | 130 | 107 | 106 | 124 | 107 | 87.7 | 92.5 | 70.3 | 51.2 | 105 | 121 | 120 | 116 | 107 | 111 | 102 | 89.7 | 97.9 | 71.1 | 49.6 |
